{"source": "patent US6420398B2", "about": "“Urea derivatives having nitrogen aromatic heterocycle” (Santen Pharmaceutical Co., Ltd., priority 1998, dated 2002)", "key": {"[1]": {"system": "TNF-α production induced by lipopolysaccharide (LPS) stimulation", "experiment": "Inhibitory effects on TNF-α production induced by LPS stimulation, in vivo test in rats (method of McGeehan et al.)", "details": "Rattus norvegicus, 2 h; female rats; LPS from Salmonella s.c.; oral administration of 10 mg/kg test compound immediately after LPS; plasma TNF-α by ELISA two hours after LPS; read-out: TNF-α production inhibition rate (%)", "procedure": "Inhibitory effects on TNF-α production induced by lipopolysaccharide (LPS) stimulation were studied by in vivo tests according to the method of McGeehan et al. (Nature, 370, 558-561 (1994)).\nFemale rats (five per group), body weight of about 200 g, about eight weeks old, were used as test animals. LPS from Salmonella was dissolved in physiological saline to prepare an LPS solution (1 mg/ml). Test compounds were dissolved or uniformly suspended in a 1% aqueous methylcellulose solution to give test compound preparation liquids.\nThe above-mentioned LPS solution (0.5 ml/kg) was subcutaneously administered to the rat. Immediately after the LPS administration, the test compound preparation liquid (5 ml/kg, containing 10 mg/kg test compound) was orally administered. Two hours after the LPS administration, blood was collected from abdominal aorta and was centrifuged at 4° C. and 3000 rpm for ten minutes. TNF-α levels in the obtained plasma were measured with a rat TNF-α -specific ELISA kit. TNF-α was not observed in the plasma with respect to an LPS-nonadministered group (control).\nTNF-α production inhibition rates of the test compounds were determined by the following equation.\nInhibition rate (%)=[(A−B)/A]×100\nA: TNF-α level in plasma of test compound-nonadministered group\nB: TNF-α level in plasma of test compound-administered group"}}, "note": "Counter-ions that a name gives are not always drawn."}
{"compound": "CC(=O)SCCN(CCC1CCCCC1)C(=O)NCCc1ccncc1", "note": "[Compound No. 4-2, 1-[2-(Acetylthio)ethyl]-1-(2-cyclohexylethyl)-3-[2-(4-pyridyl)ethyl]urea]", "values": [{"measurement": "inhibition at 10 mg/kg", "setting": "[1]", "value": 72.5, "unit": "%"}]}
{"compound": "CC(=O)SCCN(CCC1CCCCC1)C(=O)NCCCc1ccncc1", "note": "[Compound No. 4-3, 1-[2-(Acetylthio)ethyl]-1-(2-cyclohexylethyl)-3-[3-(4-pyridyl)propyl]urea]", "values": [{"measurement": "inhibition at 10 mg/kg", "setting": "[1]", "value": 80.8, "unit": "%"}, {"measurement": "melting point", "value": 70, "unit": "°C"}]}
{"compound": "CC(=O)SCCN(CCc1ccccc1)C(=O)NCCCc1cccnc1", "note": "[Compound No. 4-15, 1-[2-(Acetylthio)ethyl]-1-phenethyl-3-[3-(3-pyridyl)propyl]urea]", "values": [{"measurement": "inhibition at 10 mg/kg", "setting": "[1]", "value": 77.3, "unit": "%"}]}
{"compound": "CC(=O)SCCN(CCc1ccccc1)C(=O)NCCCc1ccncc1", "note": "[Compound No. 4-16, 1-[2-(Acetylthio)ethyl]-1-phenethyl-3-[3-(4-pyridyl)propyl]urea]", "values": [{"measurement": "inhibition at 10 mg/kg", "setting": "[1]", "value": 77.2, "unit": "%"}]}
{"compound": "CC(=O)SCCN(CCCc1ccccc1)C(=O)NCCCc1ccncc1", "note": "[Compound No. 4-17, 1-[2-(Acetylthio)ethyl]-1-(3-phenylpropyl)-3-[3-(4-pyridyl)propyl]urea]", "values": [{"measurement": "inhibition at 10 mg/kg", "setting": "[1]", "value": 70.6, "unit": "%"}]}
{"compound": "CC(=O)SCCN(CCc1ccc(F)cc1)C(=O)NCCCc1ccncc1", "note": "[Compound No. 4-18, 1-[2-(Acetylthio)ethyl]-1-(4-fluorophenethyl)-3-[3-(4-pyridyl)propyl]urea]", "values": [{"measurement": "inhibition at 10 mg/kg", "setting": "[1]", "value": 64.2, "unit": "%"}]}
{"compound": "CSCCN(CCC1CCCCC1)C(=O)NCCCc1ccncc1", "note": "[Compound No. 5-1, 1-(2-Cyclohexylethyl)-1-[2-(methylthio)ethyl]-3-[3-(4-pyridyl)propyl]urea]", "values": [{"measurement": "inhibition at 10 mg/kg", "setting": "[1]", "value": 74.9, "unit": "%"}]}
{"compound": "CSCCN(CCC1CCCCC1)C(=O)NCc1ccncc1", "note": "[Compound No. 5-2, 1 (2-Cyclohexylethyl)-1-[2-(methylthio)ethyl]-3-(4-pyridylmethyl)urea]", "values": [{"measurement": "inhibition at 10 mg/kg", "setting": "[1]", "value": 81.2, "unit": "%"}]}
{"compound": "CC(=O)SCCN(CCC1CCCCC1)C(=O)NCc1ccncc1", "note": "[Compound No. 8-1, 1-[2-(Acetylthio)ethyl]-1-(2-cyclohexylethyl)-3-(4-pyridylmethyl)urea hydrochloride]", "values": [{"measurement": "inhibition at 10 mg/kg", "setting": "[1]", "value": 80, "unit": "%"}]}
{"compound": "CC(=O)SCCN(CCC1CCCC1)C(=O)NCc1ccncc1", "note": "[Compound No. 8-3, 1-[2-(Acetylthio)ethyl]-1-(2-cyclopentylethyl)-3-(4-pyridylmethyl)urea hydrochloride]", "values": [{"measurement": "inhibition at 10 mg/kg", "setting": "[1]", "value": 78.9, "unit": "%"}]}
{"compound": "CC(=O)SCCN(CCC12CC3CC(CC(C3)C1)C2)C(=O)NCc1ccncc1", "note": "[Compound No. 8-4, 1-[2-(Acetylthio)ethyl]-1-[2-(1-adamantyl)ethyl]-3-(4-pyridylmethyl)urea hydrochloride]", "values": [{"measurement": "inhibition at 10 mg/kg", "setting": "[1]", "value": 81, "unit": "%"}]}
{"compound": "CC(=O)SCCN(CCC1=CCCCC1)C(=O)NCc1ccncc1", "note": "[Compound No. 8-10, 1-[2-(Acetylthio)ethyl]-1-[2-(1-cyclohexenyl)ethyl]-3-(4-pyridylmethyl)urea hydrochloride]", "values": [{"measurement": "inhibition at 10 mg/kg", "setting": "[1]", "value": 69, "unit": "%"}]}
{"compound": "O=C(NCCCc1ccncc1)N(CCS)CCC1CCCCC1", "note": "[Compound No. 8-11, 1-(2-Cyclohexylethyl)-1-(2-mercaptoethyl)-3-[3-(4-pyridyl)propyl]urea hydrochloride]", "values": [{"measurement": "inhibition at 10 mg/kg", "setting": "[1]", "value": 63.6, "unit": "%"}]}
